Assay results reported in the supplement of paper PMC10307832.

How the values were obtained:
Test in all cases: relative viability (nuclei count vs DMSO), 5 days (fraction); higher = more cells survive
[1] = compound: CC1=CC(=CC=C1)NC2=NC(=CS2)C3=CC=NC=C3 + COc1cc2c(Oc3ccc(NC(=O)C4(C(=O)Nc5ccc(F)cc5)CC4)cc3F)ccnc2cc1OCCCN1CCOCC1 [Foretinib] (partner 0.25 µM)
Outline: (§1)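 Nuclei were stained with Hoechst during a one-step fixation (final 0.05% Triton X-100, 1% formaldehyde, 1 ug/ml Hoechst) carried out 5 days after dosing, then counted on 4× images. The cells, lung cancer lines in 1536-well plates, had been dosed by pin tool the day after seeding with one drug alone or a fixed anchor-drug dose plus five library-drug doses (not always all listed) in √10 steps. Relative viability is the nuclei count in treated wells divided by that in vehicle wells, and each value is the median of duplicate plates.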

[2] = compound: CC1=CC(=CC=C1)NC2=NC(=CS2)C3=CC=NC=C3 + CS(=O)(=O)CCNCc1ccc(-c2ccc3ncnc(Nc4ccc(OCc5cccc(F)c5)c(Cl)c4)c3c2)o1 [Lapatinib] (partner 2 µM)
Outline: as §1

Masitinib + OSI-027 = compound: Cc1ccc(NC(=O)c2ccc(CN3CCN(C)CC3)cc2)cc1Nc1nc(-c2cccnc2)cs1 [Masitinib] + COc1cccc2cc(-c3nc([C@H]4CC[C@H](C(=O)O)CC4)n4ncnc(N)c34)[nH]c12 [OSI-027] (partner 0.5 µM)
Outline: as §1

Masitinib + AZD7762 = compound: Cc1ccc(NC(=O)c2ccc(CN3CCN(C)CC3)cc2)cc1Nc1nc(-c2cccnc2)cs1 [Masitinib] + NC(=O)Nc1cc(-c2cccc(F)c2)sc1C(=O)N[C@H]1CCCNC1 [AZD7762] (partner 0.2 µM)
Outline: as §1

| Cell Line | relative viability ([1]; first compound 0.08 µM) | relative viability ([1]; first compound 0.253 µM) | relative viability ([1]; first compound 0.8 µM) | relative viability ([1]; first compound 2.53 µM) | relative viability ([1]; first compound 8 µM) | relative viability ([2]; first compound 0.08 µM) | relative viability ([2]; first compound 0.253 µM) | relative viability ([2]; first compound 0.8 µM) | relative viability ([2]; first compound 2.53 µM) | relative viability ([2]; first compound 8 µM) | relative viability (Masitinib + OSI-027; first compound 0.01 µM) | relative viability (Masitinib + OSI-027; first compound 0.03162 µM) | relative viability (Masitinib + OSI-027; first compound 0.1 µM) | relative viability (Masitinib + OSI-027; first compound 0.3162 µM) | relative viability (Masitinib + OSI-027; first compound 1 µM) | relative viability (Masitinib + AZD7762; first compound 0.01 µM) | relative viability (Masitinib + AZD7762; first compound 0.03162 µM) | relative viability (Masitinib + AZD7762; first compound 0.1 µM) | relative viability (Masitinib + AZD7762; first compound 0.3162 µM) | relative viability (Masitinib + AZD7762; first compound 1 µM) |
| --- | --- | --- | --- | --- | --- | --- | --- | --- | --- | --- | --- | --- | --- | --- | --- | --- | --- | --- | --- | --- |
| HOP-62 | 1.08 | 1.07 | 1.12 | 1.15 | 1.04 | 0.94 | 1.02 | 1.2 | 1 | 0.909 | 0.759 | 0.866 | 0.923 | 0.929 | 0.837 | 0.458 | 0.631 | 0.837 | 0.679 | 0.655 |
| LC-2-ad | 0.836 | – | 0.901 | 0.909 | 1.07 | 0.953 | 0.86 | 0.948 | 0.853 | 0.788 | 0.862 | 0.904 | 0.929 | 0.738 | 0.768 | 0.687 | 0.795 | 0.707 | 0.71 | 0.818 |
| LCLC-97TM1 | 0.966 | 0.906 | 0.841 | 1.02 | 0.929 | – | – | 1.04 | 1.03 | 1.27 | – | 0.534 | 0.559 | 0.568 | 0.516 | 0.235 | 0.288 | 0.229 | 0.191 | 0.229 |
| LK-2 | – | 1.18 | 1.36 | – | 1.67 | 0.784 | 0.903 | 1.09 | – | 1.33 | 0.194 | 0.214 | 0.198 | 0.201 | 0.243 | 0.4 | 0.346 | 0.692 | 0.525 | 0.302 |
| LOU-NH91 | 0.794 | 0.853 | 0.807 | 0.896 | 0.903 | 0.576 | 0.613 | 0.686 | 0.705 | 0.551 | 0.702 | 0.667 | 0.723 | 0.58 | 0.655 | 0.748 | 0.628 | 0.799 | 0.642 | 0.548 |
| LU99A | 0.807 | 0.805 | 0.803 | 0.915 | 0.941 | – | 1.02 | 1.01 | 0.903 | 0.868 | 0.257 | 0.331 | 0.311 | 0.316 | 0.29 | 0.462 | 0.293 | 0.312 | 0.319 | 0.273 |
| LXF-289 | 0.926 | 1.03 | 0.994 | 0.938 | 0.823 | 0.815 | 0.93 | 0.938 | 0.823 | 0.807 | 0.747 | 0.963 | 0.794 | 0.861 | 0.767 | 0.996 | 1.18 | 1.18 | 1.14 | 1.02 |
| NCI-H23 | 1.03 | 0.963 | 1.03 | 0.873 | 0.895 | 0.971 | 1.07 | 1.01 | 1 | 0.894 | 0.49 | 0.572 | 0.617 | 0.575 | 0.559 | 0.21 | 0.273 | 0.277 | 0.237 | 0.198 |
| NCI-H322M | 0.788 | 0.924 | 0.89 | 1.01 | 0.915 | 0.538 | 0.518 | 0.519 | 0.572 | 0.662 | 0.64 | 0.531 | 0.605 | 0.551 | 0.514 | 0.435 | 0.533 | 0.423 | 0.515 | 0.534 |
| NCI-H358 | 0.699 | 0.797 | 0.671 | 0.934 | 0.566 | 0.433 | 0.476 | 0.554 | 0.607 | 0.604 | 0.85 | 0.762 | 0.859 | 0.665 | 0.731 | 0.524 | 0.491 | 0.548 | 0.509 | 0.414 |
| NCI-H460 | 0.915 | 0.894 | 0.948 | 0.924 | 0.82 | 0.875 | 0.901 | 0.887 | 1.11 | 0.692 | 0.796 | 0.705 | 0.674 | 0.558 | 0.522 | 0.62 | 0.605 | 0.655 | 0.357 | 0.525 |
| NCI-H596 | 0.804 | 0.999 | 0.728 | 0.805 | 0.838 | 0.854 | 0.974 | 0.819 | 0.94 | 1.01 | 0.87 | 0.678 | 0.73 | 0.717 | 0.697 | 1.24 | 0.978 | 1.07 | 1.1 | 0.973 |
| NCI-H647 | 0.994 | 1.15 | 1.03 | 1.17 | 1.1 | 0.958 | 0.977 | 0.849 | 0.932 | 0.917 | 0.685 | 0.651 | 0.699 | 0.579 | 0.602 | 0.587 | 0.477 | 0.535 | 0.502 | 0.469 |
| NCI-H650 | 0.955 | 0.98 | 1.08 | 1.02 | 1.02 | 0.708 | 0.815 | 1.32 | – | 0.975 | 0.538 | 0.427 | 0.536 | 0.344 | 0.524 | 1.07 | 1.02 | 1.23 | 1.15 | 0.946 |
| NCI-H727 | – | 0.837 | 0.785 | 0.79 | 0.71 | 0.489 | 0.777 | 0.674 | 0.706 | 0.668 | 0.523 | 0.601 | 0.637 | 0.576 | 0.442 | 0.592 | 0.626 | 0.566 | 0.495 | 0.606 |
